Test results from patent publication US20060276416A1, “Methods and compositions for treating flushing and drug induced weight gain” (Sirtris Pharmaceuticals, Inc., priority 2005, published 2006).

Columns and labels:
[1] = test system: lysine 382 of p53; experiment: p53 K382 acetylation Western blot in UV-irradiated U2OS cells; assay type: cell-based, human
Method: FdL (200 μM) is added to growth media and cells incubated for 1-3 hours to allow FdL to enter the cells and the lysine-deacetylated product (deAc-FdL) to accumulate intracellularly. Cells are lysed with detergent in the presence of 1 μM TSA, 1 mM nicotinamide. […] Cells were grown adherently in DMEM/10% FCS and treated for 1 hour with 200 μM FdL, 1 μM TSA and either vehicle (0.5% final DMSO, Control) or 500 μM of the indicated compound. Intracellular accumulation of deAc-FdL was then determined as described briefly in a. […] Lysates were prepared and analyzed as above.
Whole cell extracts were prepared by lysing cells in buffer containing 150 mM NaCl, 1 mM MgCl2, 10% glycerol, 1% NP40, 1 mM DTT and anti-protease cocktail (Roche).

[2] = test system: S. cerevisiae; experiment: Yeast replicative lifespan by micro-manipulation; assay type: cell-based
Method: (§1) Average lifespan for wild type, 22.9 generations, quercetin, 23.4; piceatannol.
Lifespan measurements were performed using PSY316AT MATα as previously described^35. All compounds for lifespan analyses were dissolved in 95% ethanol and plates were dried and used within 24 hours. Prior to lifespan analysis, cells were pre-incubated on their respective media for at least 15 hours. Following transfer to a new plate, cells were equilibrated on the medium for a minimum of 4 hours prior to micro-manipulating them. At least 30 cells were examined per experiment and each experiment was performed at least twice. Statistical significance of lifespan differences was determined using the Wilcoxon rank sum test. Differences are stated to be significant when the confidence is higher than 95%.

[3] = test system: AMPK and ACC phosphorylation; experiment: AMPK and ACC phosphorylation in mouse embryonic fibroblasts without LKB1; assay type: cell-based; conditions: LKB1 -/- cells; 50, 100, 200 μM
Method: Blots were stained for the presence of P-ACC, P-AMPK, AMPK, or tubulin as indicated on the left.
Similar results were also observed in mouse embryonic fibroblast (MEFs). […] Cells in the left panel were incubated overnight without serum before harvesting; the cells on the right were not incubated under serum free conditions. […] Tubulin served as a loading control.

[4] = test system: AMPK at Thr172 and ACC at serine 79; experiment: AMPK and ACC phosphorylation Western in CHO-HIR cells; assay type: cell-based
Method: Cells were harvested after 30 minutes and lysates were immediately boiled in SDS and subjected to Western analysis with site-specific antibodies. Phosphorylation of AMPK at Thr172 indicates activation of the kinase. Active AMPK phosphorylates and inactivates ACC at serine 79.

[5] = molecular target: recombinant dSir2 (Drosophila melanogaster, UniProt Q9VK34); experiment: dSir2 deacetylation assay (Fluor de Lys); assay type: biochemical, D. melanogaster; conditions: dose-dependent; maximum
Method: From 0.1 to 1 μg of SIR-2.1 and 1 μg of dSir2 were used per deacetylation assay as previously described with modifications (SIR-2.1: 200 μM NAD^+, 10 μM Fluor de Lys, FdL; dSir2: 25 μM NAD^+, 10 μM FdL)^26. STACs were dissolved at 10 mM in dimethylsulfoxide (DMSO) the day of the assay. In vitro fluorescence assay results were read in 96-well microplates (Corning Costar 3693) with a Wallac Victor Multilabel counter (Perkin Elmer, excitation at 360 nm, emission at 450 nm). Drosophila S2 cells were grown in Schneider media with fetal calf serum at 23-28° C., seeded at 9×10^4 cells/well, grown overnight and then exposed to 1 μM TSA, 500 μM polyphenols, and 200 μM FdL for 2 hr. Deacetylation of FdL with lysate from whole cells was determined as described^4. Unless otherwise indicated all initial rate measurements were means of three or more replicates obtained with single incubation times, at which point 5% or less of the substrate initially present was deacetylated.

[6] = molecular target: recombinant GST-Sir2 (Saccharomyces cerevisiae, UniProt P06700); experiment: Sir2 deacetylation assay; assay type: biochemical, S. cerevisiae
Method: as §1
His6-tagged recombinant SIRT1 and GST-tagged recombinant Sir2 were prepared as previously described^26. From 0.1 to 1 μg of SIRT1 and 1.5 μg of Sir2 were used per deacetylation assay (in 50 μl total reaction) as previously described^26. SIRT1 assays and certain of those for Sir2 employed the p53-382 acetylated substrate (‘Fluor de Lys-SIRT1’, BIOMOL) rather than FdL.
Themed compound libraries (BIOMOL) were used for primary and secondary screening. Most polyphenol compounds were dissolved at 10 mM in dimethylsulfoxide (DMSO) on the day of the assay. For water soluble compounds and negative controls, 1% v/v DMSO was added to the assay. In vitro fluorescence assay results were read in white ½-volume 96-well microplates (Corning Costar 3693) with a CytoFluor™ II fluorescence plate reader (PerSeptive Biosystems, Ex. 360 nm, Em. 460 nm, gain=85). HeLa cells were grown and the cellular deacetylation assays were performed and read, as above, but in full-volume 96-well microplates (Corning Costar 3595). […] Calculation of net fluorescence increases included subtraction of a blank value, which in the case of Sir2 was obtained by omitting the enzyme from the reaction and in the case of SIRT1 by adding an inhibitor (200 μM suramin or 1 mM nicotinamide) to the reaction prior to the acetylated substrate. […]

[7] = test system: TNF-alpha treated adipocytes; experiment: Radioactive glucose uptake in TNF-alpha treated insulin resistant adipocytes; assay type: cell-based; conditions: resveratrol 5 μM or 15 μM; roziglitazone 4 μM
[8] = test system: phosphorylation of ACC; experiment: ACC phosphorylation Western in 3T3-L1 adipocytes; assay type: cell-based; conditions: day 6 and day 10 of differentiation
Method: ACC was also phosphorylated when the cells were incubated in serum free media overnight before harvesting (lanes marked “SF”). The reason for the extra band in the SIRT1 blot at day 6 is unknown, but it may be a modified form of SIRT1. Tubulin served as a loading control.

[9] = test system: D. melanogaster; experiment: D. melanogaster survival (lifespan) assay; assay type: in vivo
Method: Survival assays were conducted independently with adult D. melanogaster in two laboratories. In the first laboratory, all trials used an yw marked wild-type strain. Larvae were reared on standard cornmeal-sugar-yeast (CSY) agar diet (cornmeal 5%, sucrose 10.5%, SAF yeast 2%, and agar 0.7%). Newly eclosed adults were placed in 1 L demography cages with approximately 75 males and 75 females. Three to four replicate 1 L demography cages were used for each treatment group in each trial. Every two days, dead flies were removed and scored, and food vials were replenished. Food vials contained cornmeal-sugar-yeast diet with SAF yeast as either 2% or 3% by weight. Test compounds in 100 μl of EtOH (or blank EtOH in controls) were mixed into melted aliquots of the adult food media to make a final concentration of 0, 10 or 100 μM. Fresh stock solutions and adult media were prepared weekly. In the second laboratory, lifespan trials were conducted with the wild type strain Canton-S, dSir2^4.5 and dSir2^5.26 (S. Smolik, University of Oregon), dSir2^17 (S. Astrom, Stockholm University, Sweden), and dSir2^KG00871 (Drosophila Stock Center, Bloomington, Ind.). Larvae for all tests were reared on standard cornmeal-sugar-yeast diet. Newly eclosed adults were incubated in plastic shell vials containing 5 ml of 15% sugar-yeast diet (15% SY) or 5% sugar-yeast (5% SY) diet (15% SY: 15% yeast, 15% sucrose, 2% agar; 5% SY: 5% yeast, 5% sucrose, 2% agar as per Ref.^20). In all trials, ˜20 males with ˜20 females were placed into each of 10 vials/treatment group. Every two days, flies were passed into new vials and dead flies were counted. […] Final compound concentrations were 0, 10, 100 or 200 μM. Fresh stock solution and adult media was prepared weekly.

Chain of recombinant GST-Sir2 (P06700 whole entry): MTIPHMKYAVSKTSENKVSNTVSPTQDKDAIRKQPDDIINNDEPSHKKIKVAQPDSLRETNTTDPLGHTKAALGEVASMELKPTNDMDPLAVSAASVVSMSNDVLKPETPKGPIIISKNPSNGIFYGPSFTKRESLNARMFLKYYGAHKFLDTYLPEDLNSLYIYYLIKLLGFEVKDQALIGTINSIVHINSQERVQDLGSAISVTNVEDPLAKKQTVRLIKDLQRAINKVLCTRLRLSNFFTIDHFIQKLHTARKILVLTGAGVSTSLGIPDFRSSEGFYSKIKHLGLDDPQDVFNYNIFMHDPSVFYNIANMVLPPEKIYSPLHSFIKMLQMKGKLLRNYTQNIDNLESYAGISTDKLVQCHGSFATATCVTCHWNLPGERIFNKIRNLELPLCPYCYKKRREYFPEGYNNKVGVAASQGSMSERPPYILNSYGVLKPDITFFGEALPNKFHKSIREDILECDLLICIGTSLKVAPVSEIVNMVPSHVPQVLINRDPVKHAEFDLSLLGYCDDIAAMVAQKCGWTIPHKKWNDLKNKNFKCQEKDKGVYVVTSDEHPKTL
Chain of recombinant dSir2 (Q9VK34 whole entry): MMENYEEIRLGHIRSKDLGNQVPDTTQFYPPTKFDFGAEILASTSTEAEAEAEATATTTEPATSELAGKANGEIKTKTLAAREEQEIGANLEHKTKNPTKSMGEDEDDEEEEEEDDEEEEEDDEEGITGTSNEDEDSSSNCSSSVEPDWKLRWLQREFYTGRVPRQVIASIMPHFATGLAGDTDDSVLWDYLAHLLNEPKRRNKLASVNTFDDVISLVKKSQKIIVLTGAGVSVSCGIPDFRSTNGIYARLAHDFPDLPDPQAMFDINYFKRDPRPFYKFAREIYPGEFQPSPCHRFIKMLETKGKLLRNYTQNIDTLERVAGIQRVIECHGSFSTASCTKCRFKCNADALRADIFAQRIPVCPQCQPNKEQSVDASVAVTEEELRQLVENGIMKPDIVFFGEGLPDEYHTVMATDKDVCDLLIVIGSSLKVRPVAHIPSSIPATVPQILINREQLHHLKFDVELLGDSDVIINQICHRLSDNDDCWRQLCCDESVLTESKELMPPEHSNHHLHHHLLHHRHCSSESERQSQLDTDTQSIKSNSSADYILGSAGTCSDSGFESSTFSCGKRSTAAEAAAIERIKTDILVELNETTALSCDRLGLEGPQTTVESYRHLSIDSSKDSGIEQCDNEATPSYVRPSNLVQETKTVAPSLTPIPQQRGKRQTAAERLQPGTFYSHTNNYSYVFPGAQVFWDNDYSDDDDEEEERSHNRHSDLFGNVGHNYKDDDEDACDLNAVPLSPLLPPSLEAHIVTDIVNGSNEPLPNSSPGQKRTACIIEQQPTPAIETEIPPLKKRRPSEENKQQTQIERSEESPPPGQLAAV

Question: How did the “Level of Ac-K382” value ([1]; 0.5 μM resveratrol, 4 hours pre-treatment, UV radiation) turn out when `Oc1ccc(/C=C/c2cc(O)cc(O)c2)cc1` [Resveratrol, 3,5,4′-Trihydroxy-trans-stilbene] was run?
Answer: marked decrease

Question: And the “Level of Ac-K382” value ([1]; higher concentrations of resveratrol (>50 μM))?
Answer: reversed

Question: And the Average lifespan ([2]; glucose-restricted+resveratrol (CR+R))?
Answer: 39.9 generations

Question: What about the Average lifespan ([2]; growth on resveratrol 10 μM, wild type untreated 21.0) of the same compound?
Answer: 35.7 generations

Question: What about the Average lifespan ([2]; growth on resveratrol 100 μM, wild type untreated 21.0) of the same compound?
Answer: 29.4 generations

Question: What about the Average lifespan ([2]; growth on resveratrol 500 μM, wild type untreated 21.0) of the same compound?
Answer: 29.3 generations

Question: What about the Average lifespan ([2]; pnc1Δ+resveratrol, pnc1Δ 19.2) of the same compound?
Answer: 33.1 generations

Question: What about the Average lifespan ([2]; sir2Δ+resveratrol, sir2Δ 9.9) of the same compound?
Answer: 10.0 generations

Question: What about the Average lifespan ([2]; wild type+resveratrol, wild type untreated 19.0) of the same compound?
Answer: 37.8 generations

Question: And the “AMPK and ACC phosphorylation” value [3]?
Answer: upregulation of both AMPK and ACC phosphorylation

Question: And the “Activation of AMPK” value ([4]; 100 nM to 50 μM resveratrol, increasing concentrations)?
Answer: activation of AMPK

Question: What about the “Phosphorylation of AMPK and ACC” value ([4]; AICAR 500 μM, resveratrol 12.5, 25 or 50 μM, 30 minutes) of the same compound?
Answer: stimulates phosphorylation of AMPK and ACC

Question: What about the Stimulation of deacetylation [5] of the same compound?
Answer: ≤ 2.4 fold

Question: And the “Concentrations at which inhibition was seen” value [6]?
Answer: > 100 µM

Question: What about the “Optimum concentration of activator” value [6] of the same compound?
Answer: 2 to 5 µM

Question: And the “Insulin sensitivity (radioactive glucose uptake)” value [7]?
Answer: partially rescued

Question: What about the “Phosphorylation of ACC” value [8] of the same compound?
Answer: stimulated the phosphorylation of ACC

Question: And the Lifespan increase ([9]; Canton-S/dSir2 KG0087, maximum)?
Answer: up to 17%

Question: And the “Lifespan extension (in words)” value ([9]; dSir2 4.5/5.26 (no functional dSir2) or dSir2 17/KG00871 (severely decreased), 100 μM)?
Answer: failed to extend lifespan

Question: And the “Increase of longevity (in words)” value ([9]; flies homozygous for a hypomorphic dSir2 allele)?
Answer: small but statistically significant amount

Question: And the “Longevity under restricted diet” value ([9]; restricted diet)?
Answer: neither resveratrol nor fisetin further increased longevity

Question: What about the Lifespan extension ([9]; wild type strains, males and females, independent tests, maximum) of the same compound?
Answer: up to 29%
